Experimental data published in patent publication US10017475B2, “Anti-vasculature and anti-tubulin combretastatin analogs for treatment of cancer” (XAVIER UNIVERSITY OF LOUISIANA, priority 2014, dated 2018).
“Also recorded” adds a separate entry of the source. Read-outs that look alike come from different tables or passages of the source.

Legend:
[1] = system: A549; experiment: Antiproliferative assay (resazurin, 72 h); type: cell-based, human; conditions: A549, 72 h incubation, read-out: Growth Inhibition IC50 A549
Experimental: (§1) Cells were seeded in 96-well plates (5×10^3 cells/well) containing 50 μL growth medium for 24 hours. After medium removal, 100 μL fresh medium containing individual analog compound at different concentrations was added to each well and incubated at 37° C. for 72 h. […] After 72 h of incubation, 20 μL of resazurin was added for 2 h before recording fluorescence at 560 nm (excitation) and 590 nm (emission) using a Victor microtiter plate fluorimeter (Perkin-Elmer, USA).

[2] = system: HeLa; experiment: Antiproliferative assay (resazurin, 72 h); type: cell-based, human; conditions: 72 h incubation, read-out: Growth Inhibition IC50 HeLa
Experimental: as §1

[3] = system: MDA-MB-231; experiment: Antiproliferative assay (resazurin, 72 h); type: cell-based, human; conditions: MDA-MB-231, 72 h incubation, read-out: Growth Inhibition IC50 MDA-MB-231
Experimental: as §1

[4] = system: HeLa cells; experiment: Immunofluorescence of interphase microtubules; type: cell-based, human; conditions: 1 μM, 24 h
Experimental: (§2) MDA-MB-231 and HeLa cells were grown on a Laboratory-Tek chamber slide (VWR International, Radnor, Pa.) and treated with vehicle (DMSO) or 1 μM CA-4 or 4h for 24 hours to 4 days. At the completion of treatment, cells were fixed with 3.7% formaldehyde and permeabilized with 0.1% Triton X-100 in PBS for 4 min. The cells were first incubated for 1 h in a solution of PBS containing 1% BSA and calf serum to block nonspecific antibody binding. The cells were then incubated with the mouse anti-tubulin antibody (1:200) (Life Technologies, Grand Island, N.Y.), washed 3 times in PBS containing 1% BSA and incubated for 2 h at room temperature with secondary goat antimouse antibody Alexa 488 labeled (1:200) for tubulin staining. The chamber slides were examined and photographed using a Nikon ES800 fluorescence microscope with a digital camera.
(§3) To determine the microtubule disrupting effects of the pyridine-linked analogs, compound 4h was selected as a representative compound in a cell-based phenotypic screening. HeLa and MDA-MB-231 cells were used to examine the effect of 4h on the reorganization of microtubules during mitosis. Cells were treated with either 4h or CA-4 for 24 h, and microtubules were visualized by indirect immunofluorescence techniques. An antibody for β-tubulin was used to visualize interphase and mitotic microtubule structures.
(§4) At FIG. 37 the effects of CA-4 and 4h on interphase microtubules are shown. MDA-MB-231 and HeLa cells were treated with vehicle (A, D) or 1 μM compounds (B, C and E, F) as indicated for 24 hours. Cells were then fixed and microtubules visualized by indirect immunofluorescence techniques. Normal interphase microtubules are visible in the control cells of HeLa and MDA-MB-231. The loss of interphase microtubules induced by CA-4 and 4h is shown in respective treatments as labeled.

[5] = system: MDA-MB-231 cells; experiment: Immunofluorescence of interphase microtubules; type: cell-based, human; conditions: 1 μM, 24 h
Experimental: as §2, §3, §4

[6] = system: HeLa cells; experiment: Cytofluorimetric analysis of cell cycle distribution; type: cell-based, human; conditions: 1 μM, 24 h
[7] = system: MDA-MB-231 cells; experiment: as above; type: cell-based, human; conditions: 1 μM, 24 h
Experimental: Cells treated with tested compounds for 24 h were washed once in PBS and resuspended in 1 mL of 70% ice cold ethanol and stored at −20° C. Fixed cells were washed twice in PBS and then treated with 1 mL of 0.1 mg/mL of RNase. A solution at 37° C. for 1 h. DNA was then stained with a PBS solution containing 0.1 mg/mL propidium iodide for 30 min at room temperature in the dark. Cell cycle analysis was determined with Accuri C6 (BD Biosciences, Mountain View, Calif.).
Similar results were obtained when another metastatic cancer cell line, MDA-MB-231 was used to test the effect of these compounds on cell cycle arrest.

[8] = system: chick embryo chorioallantoic membrane; experiment: Chick embryo chorioallantoic membrane (CAM) anti-angiogenesis assay; type: in vivo; conditions: for Angiogenesis score (scale 0-3) versus positive control BV (bFGF+VEGF): collagen onplant with bFGF+VEGF on CAM, four days
Experimental: Fertilized embryos were obtained from Charles River Laboratories and incubated at 37.5° C. for 3 days, removed from their shell using a Dremel tool and placed into a covered weighing boat for 10 further days of incubation. Solidified 30 µL onplants containing 2.1 mg/mL rat tail collagen (BD Biosciences, Bedford, Mass.) and 10 ng/mL bFGF and 30 ng/mL VEGF in the presence or absence of CA-4 and 4s were placed on the embryo chorioallantoic membrane (CAM) over two pieces of nylon mesh approximately 0.5 cm^2. Four collagen onplants were added per egg on at least 3 separate eggs. After four days of incubation, images were taken of each plug on surviving embryos using a mini-Vid camera (LW Scientific; Lawrenceville, Ga.) and quantified in a masked fashion on a scale from 0-3 with 0 representing no angiogenesis and 3 representing extreme angiogenesis. Data from one scorer (confirmed by a second scorer) are presented as the means±standard errors of the mean. Statistical significances were determined by one-way analysis of variance (ANOVA) followed by Dunnett's multiple comparison test (GraphPad Prism, La Jolla, Calif.).
In this test the vascular system of a fertilized chicken embryo is used as a model. […] The anti-angiogenesis activity of 4s and CA-4 were determined by the suppression of angiogenic action of BV (bFGF+VEGF) when the compound was added to a collagen containing BV and placed on the chorioallantoic membrane of […] chick embryos for four days. Angiogenesis was scored by two scorers in a blinded fashion.

[9] = system: bovine brain tubulin; experiment: Tubulin polymerization assay; conditions: compared to vehicle (DMSO)
Experimental: It is based on the principal that light is scattered by microtubules to an extent that is proportional to the concentration of the microtubule polymer. Compounds that interact with tubulin will alter the polymerization of tubulin, and this can be detected using a spectrophotometer. The absorbance at 340 nm at 37° C. is monitored. The experimental procedure of the assay was performed as described in version 8.2 of the tubulin polymerization assay kit manual. Varying concentrations of compounds were preincubated with 10 μM bovine brain tubulin in glutamate buffer at 30° C. and then cooled to 0° C. After the addition of 0.4 mM GTP, the mixtures were transferred to 0° C. cuvettes in a recording spectrophotometer and warmed to 30° C. Tubulin assembly was followed turbidimetrically at 350 nm.
The reaction was initiated by the addition of tubulin to a final concentration of 3.0 mg/mL

SMILES	IC50 ([1]; Homo sapiens, A549, 72 h)	IC50 ([2]; Homo sapiens, 72 h)	IC50 ([3]; Homo sapiens, MDA-MB-231, 72 h)	melting point	Cell cycle distribution G0/G1 [6]	Cell cycle distribution G2/M [6]	Cell cycle distribution S [6]	Cell cycle distribution G0/G1 [7]	Cell cycle distribution G2/M [7]	Cell cycle distribution S [7]	Inhibition of tubulin polymerization ([9]; compound at 1 μM)	Inhibition of tubulin polymerization ([9]; compound at 10 μM)	also measured
COc1ccc(/C=C\c2cc(OC)c(OC)c(OC)c2)cc1O [CA-4, Combretastatin A4, reference compound]	–	–	–	–	37.00%	44.6%	16.70%	27.50%	57.80%	11.80%	35%	nearly completely blocked tubulin polymerization	IC50 [1]: 3.8 nM; IC50 [2]: 0.9 nM; IC50 [3]: 2.8 nM; Effect on interphase microtubule network [4]: very similar loss of the microtubule network; Effect on interphase microtubule network [5]: very similar loss of the microtubule network; Effect on new vessel growth ([8]; CAM, 4 days after treatment): inhibition of new vessel growth and vessel shrinkage; Angiogenesis score (scale 0-3) versus positive control BV (bFGF+VEGF) [8]: scored significantly lower than the positive control
COc1cc(-c2ccc(Br)cn2)cc(OC)c1OC [Compound 2e, 5-Bromo-2-(3,4,5-trimethoxyphenyl)pyridine]	> 25000 nM	14000 nM	12000 nM	49 to 50 °C	–	–	–	–	–	–	–	–	–
COc1ccc(-c2cccc(-c3ccc(OC)cc3OC)n2)c(OC)c1 [Compound 3c, 2,6-Bis(2,4-dimethoxyphenyl)pyridine]	79 nM	11 nM	75 nM	113 to 114 °C	–	–	–	–	–	–	–	–	–

Further lines, with some results ahead:

IC50 ([1]; Homo sapiens, A549, 72 h)	IC50 ([2]; Homo sapiens, 72 h)	IC50 ([3]; Homo sapiens, MDA-MB-231, 72 h)	melting point	SMILES	Cell cycle distribution G0/G1 [6]	Cell cycle distribution G2/M [6]	Cell cycle distribution S [6]	Cell cycle distribution G0/G1 [7]	Cell cycle distribution G2/M [7]	Cell cycle distribution S [7]	Inhibition of tubulin polymerization ([9]; compound at 1 μM)	Inhibition of tubulin polymerization ([9]; compound at 10 μM)	also measured
89 nM	3.8 nM	3.1 nM	–	COc1ccc(-c2cccc(-c3ccc(OC)cc3OC)n2)cc1 [Compound 4h, 2-(2,4-Dimethoxyphenyl)-6-(4-methoxyphenyl)pyridine]	10.30%	73.4%	15.40%	13.10%	70.5%	16.40%	–	remained ineffective against tubulin polymerization	Effect on interphase microtubule network [4]: dramatic reduction of the interphase microtubule network; Effect on interphase microtubule network [5]: dramatic reduction of the interphase microtubule network; Inhibition of tubulin polymerization ([9]; compound at 1 μM, 1 µM): failed to inhibit tubulin polymerization; also recorded: slightly stimulating tubulin polymerization
44 nM	1.4 nM	4.6 nM	142 to 144 °C	COc1ccc(-c2cccc(-c3ccc(OC)c(O)c3)n2)c(OC)c1 [Compound 4s, 5-(6-(2,4-Dimethoxyphenyl)pyridine-2-yl)-2-methoxyphenol]	12.10%	70.6%	17.10%	18.60%	54.1%	17.10%	failed to inhibit tubulin polymerization	57%	Anti-angiogenesis activity compared with CA-4 ([8]; CAM, 4 days after treatment): more effective than CA-4 in suppressing new vessel growth; Effect on new vessel growth ([8]; CAM, 4 days after treatment): inhibition of new vessel growth and vessel shrinkage; Angiogenesis score (scale 0-3) versus positive control BV (bFGF+VEGF) [8]: scored significantly lower than the positive control
2640 nM	4.7 nM	69 nM	129 to 130 °C	COc1ccc(-c2cccc(-c3cc(OC)c(OC)c(OC)c3)n2)cc1O [Compound 4t, 2-Methoxy-5-(6-(3,4,5-trimethoxyphenyl)pyridine-2-yl)phenol]	–	–	–	–	–	–	failed to inhibit tubulin polymerization	32%	–
> 51000 nM	> 52000 nM	> 50000 nM	79 to 80 °C	COc1ccc(-c2cccc(-c3cccc(OC)c3OC)n2)c(OC)c1 [Compound 4n, 2-(2,3-Dimethoxyphenyl)-6-(2,4-dimethoxyphenyl)pyridine]	–	–	–	–	–	–	–	–	–
